In PMC12604490, “Dual immunomodulatory and antileishmanial potential of TLR7/8 agonists against Leishmania donovani” (Infection and Immunity, 2025):
In brackets after ≈: the same amount, converted by molar mass.

Experiments:
[1] = Cytotoxicity on HeLa cells (MTT, 48 h); format: cell-based, human; settings: human, HeLa cells
Method: HeLa cells (human cervical epithelial cell line) were grown in RPMI-1640 (HiMedia) with 10% FBS and cultured at 37°C (5% CO2). The cells were evaluated daily using an inverted microscope for any contamination and subcultured after reaching confluency ([21]).
(§1) The cytotoxicity studies were performed using an immune cell line (RAW 264.7 macrophage) and non-immune epithelial cell line (HeLa) by 3-(4,5-dimethylthiazol-2-yl)-2,5-diphenyltetrazolium bromide (MTT) assay. A total of 7,000–10,000 cells/well were supplemented with different concentrations (2–64 μg/mL) of TLR7/8 agonists and incubated for 48 hours. MTT (1 mg/mL) (Hi-Media) was added to each well and kept for 4 hours. The formazan crystals formed were dissolved in 100 µL of dimethyl ulfoxide (DMSO), and absorbance at 550 nm was recorded using a microreader. AmB, MF, and Resiquimod were used as reference drugs. The percentage of cytotoxicity was calculated as [(absorbance of treated well − absorbance of blank) / (absorbance of untreated well − absorbance of blank)] × 100. The CC50 value was calculated with SPSS software. The SI of TLR7/8 agonists was obtained by calculating the ratio of CC50 (RAW 264.7 macrophage and HeLa cells) and IC50 (antipromastigote and antiamastigotes) ([21], [23]).

TLR8 = system: TLR8; design: method as in PMID 38741265, PMID 39411538; settings: Table 1; previously reported; cited from earlier work
[2] = Cytotoxicity on RAW 264.7 macrophages (MTT, 48 h); format: cell-based; settings: mouse, RAW 264.7 macrophages
Method: (§2) To evaluate the cytotoxicity and antiamastigote assay, RAW 264.7 macrophages were cultured in Dulbecco’s modified Eagle medium (HiMedia, India), 10% heat-inactivated fetal bovine serum (FBS, Biowest) and cultured at 37°C (5% CO2). The macrophage cell growth was evaluated daily, and the cells were subcultured into a new flask containing fresh cell culture medium once they reached about 80%–90% confluency.
as §1

[3] = system: intracellular L. donovani amastigotes; test: Antiamastigote activity in infected RAW 264.7 macrophages (Giemsa count, 48 h); format: cell-based; settings: Leishmania donovani, RAW264.7, intracellular amastigotes in RAW 264.7 macrophages, mean ± SD
Method: The macrophage cell growth was evaluated daily, and the cells were subcultured into a new flask containing fresh cell culture medium once they reached about 80%–90% confluency. […] Macrophages (2 × 10^4/mL) were plated on round coverslips placed in 24-well plates for 24 hours in a CO2 incubator (5% CO2) at 37°C. The coverslips were washed thrice with serum-free medium to remove the non-adherent cells. […] Infected macrophages were incubated with different concentrations of TLR7/8 agonists for 48 hours. After 48 hours, the coverslips were washed with phosphate-buffered saline (PBS), dried, fixed with chilled methanol, Giemsa-stained, and examined under a light microscope. A minimum of 200 macrophages were counted per coverslip to determine the number of amastigotes.

[4] = system: L. donovani promastigotes; test: In vitro antipromastigote activity (trypan blue count, 48 h); format: cell-based, Leishmania donovani MHOM/IN/80/DD8; settings: Leishmania donovani, mean ± SD
Method: M199 was added with 0.2% sodium bicarbonate and 10% heat-inactivated fetal bovine serum (FBS; Biowest, France) + antibiotics (gentamycin and streptomycin) by serial subcultures after every 48-72 hours by transferring 0.5-1.0 mL of culture supernatant in fresh medium and kept in a biological oxygen demand (BOD) incubator ([20]). […] The percentage growth inhibition was calculated using the following formulas: Percentage viability=No. of live cells in treated well/No. of live cells in blank well×100 Percentage growth inhibition=100 - percentage viability. The IC50 values were calculated using SPSS software, version 25 ([22]).

TLR7 = system: TLR7; design: method as in PMID 38741265, PMID 39411538; settings: Table 1, previously reported, cited from earlier work; for EC50: read-out: TLL7 EC50
RAW 264.7 macrophages [5] = test: NO production in RAW 264.7 macrophages (Griess reagent); format: cell-based
Method: After 24 hours, non-adherent cells were removed, and adherent cells were incubated with TLR7/8 agonist for 48 hours in the presence or absence of LPS (1 µg/mL) (Biosciences) to evaluate both unstimulated and LPS-stimulated macrophage responses. After 48 hours, the culture supernatant (100 µL) was collected and mixed with an equal volume of Griess reagent (1% sulfanilamide and 0.1% naphthlethylenediamine dihydrochloride in 2.5% phosphoric acid) (Sigma), and absorbance was measured in a microreader at 540 nm. Nitrite concentration was evaluated from a standard curve generated with sodium nitrite ([25]).

[6] = system: L. donovani promastigotes; test: ROS in Leishmania promastigotes (H2DCFDA, flow cytometry); format: cell-based, Leishmania donovani; settings: promastigotes incubated with the IC50 value for 48 hours; untreated 295 ± 1.52
Method: Induction of ROS by promastigotes after exposure to TLR7/8 agonists was done using a cell-permeable fluorescent dye H2DCFDA (Thermo Fisher). […] After this given time period, parasites were harvested and washed thrice with PBS and resuspended in 10 µM H2DCFDA for 20 minutes in the dark at 37°C. The fluorescence was measured by using FACS Calibur flow cytometry ([24]).

[7] = system: L. donovani promastigotes; test: Cell cycle progression in promastigotes (propidium iodide, flow cytometry); format: cell-based, Leishmania donovani; settings: promastigotes incubated with the IC50 for 48 hours; untreated 12.0% ± 1.05%
Method: For analysis of the promastigote cell cycle, 2 × 10^6 promastigotes/mL were briefly incubated with the IC50 of TLR7/8 agonists in a 24-well culture plate. After 48 hours, promastigotes were washed with PBS and fixed with 70% (vol/vol) chilled ethanol. After 1 hour of incubation, parasites were washed with PBS, and the pellet was incubated with 500 µL of DNase-free RNase (200 µg/mL) (Thermo Fisher) for 1 hour. Afterward, parasites were stained with PI dye (50 µg/mL), and the percentage of parasites in the sub-G0/G1 phase was analyzed using FACS Calibur flow cytometry ([20]).

RAW 264.7 macrophages [8] = test: Cytotoxicity on RAW 264.7 macrophages (MTT, 48 h); format: cell-based; settings: MTT, 48 hours, mean ± SD
Method: as §2, §1

Leishmania major = system: Leishmania major; design: method as in PMID 33531168; settings: 80 µM concentration; cited from earlier work
Leishmania infantum = settings: read-out: IC50 against Leishmania infantum; cited from earlier work
[9] = system: Leishmania in peritoneal macrophages; design: method as in PMID 30991111; settings: cited from earlier work
L. infantum = system: L. infantum; design: method as in PMID 33851916; settings: read-out: IC50 (antiamastigote) against L. infantum; cited from earlier work
[10] = MTT, 48 hours, mean ± SD, read-out: HeLa cell CC50
[11] = MTT, 48 hours, mean ± SD, read-out: RAW macrophage CC50
[12] = Fig 4 heat map, mean CC50, unit inferred, read-out: CC50, heat map, Hela Cells

| IC50 [3] [µg/mL] | IC50 [4] [µg/mL] | SMILES | CC50 at 48 h [1, 10] [µg/mL] | CC50 at 48 h [2, 11] [µg/mL] | CC50 at 48 h [1, 12] [µg/mL] | EC50 (TLR8) [nM] | EC50 (TLR7) [nM] | also measured |
| --- | --- | --- | --- | --- | --- | --- | --- | --- |
| 5.16 ± 0.79 (≈ 11.2 µM) | 3.82 ± 0.39 (≈ 8.31 µM) | CCCCc1nc2c(N)nc3ccccc3c2n1Cc1ccc(CNC(=O)OC(C)(C)C)cc1 [compound 7] | 4.28 ± 0.2 (≈ 9.31 µM) | 6.28 ± 0.2 (≈ 13.7 µM) |  |  |  | TLR8 EC50 (TLR8): Active; TLL7 EC50 (TLR7): Active |
| 3.1 ± 0.9 (≈ 6.75 µM) | 2.21 ± 0.6 (≈ 4.81 µM) | CCCCc1nc2c(N)nc3ccccc3c2n1Cc1cccc(CNC(=O)OC(C)(C)C)c1 [compound 8] | 8.86 ± 0.5 (≈ 19.3 µM) | 9.5 ± 1 (≈ 20.7 µM) | 8.8 (≈ 19.1 µM) |  |  | TLR8 EC50 (TLR8): Active; TLL7 EC50 (TLR7): Active |
| 6.46 ± 0.47 (≈ 18 µM) | 4.53 ± 0.58 (≈ 12.6 µM) | CCCCc1nc2c(N)nc3ccccc3c2n1Cc1cccc(CN)c1 [compound 9] | 4.67 ± 0.3 (≈ 13 µM) | 6.67 ± 0.3 (≈ 18.6 µM) |  | […] | […] |  |
| 3 ± 0.36 (≈ 8.35 µM) | 2.33 ± 0.4 (≈ 6.48 µM) | CCCCc1nc2c(N)nc3ccccc3c2n1Cc1ccc(CN)cc1 [compound 10] | 29.4 ± 1.6 (≈ 81.7 µM) | 30.4 ± 1.6 (≈ 84.5 µM) | 21.4 (≈ 59.4 µM) | […] | […] | NO production (RAW 264.7 macrophages [5]; RAW 264.7 macrophages, 48 hour treatment at the IC50 value, nitrite by Griess): 42 ± 1 µM; NO production in unstimulated macrophages (RAW 264.7 macrophages [5]; RAW macrophages without LPS stimulation, in words): moderate NO production; ROS, mean fluorescence intensity (MFI) [6]: 935 ± 1; CC50 at 48 h ([2]; Fig 4 heat map, mean CC50, unit inferred, read-out: CC50, heat map, Raw Macrophages): 25.4 µg/mL (≈ 70.6 µM); percentage of parasites in sub-G0/G1 phase [7]: 75.7% ± 1.25% |
| 6.6 ± 0.4 (≈ 27.5 µM) | 4.63 ± 0.45 (≈ 19.3 µM) | CCCCn1cc2c(n1)c(N)nc1ccccc12 [compound 11] | 4.67 ± 0.2 (≈ 19.4 µM) | 6.69 ± 0.22 (≈ 27.8 µM) | 4.88 (≈ 20.3 µM) | 56 | 190 | RAW macrophage CC50 (RAW 264.7 macrophages [8]): 6.67 ± 0.2 µg/mL |
|  |  | COc1cc(/C=C/C(=O)CC(=O)/C=C/c2ccc(O)c(OC)c2)ccc1O [curcumin] |  |  |  |  |  | cell death (Leishmania major): 82.5% |
|  |  | CC(C)Cn1cnc2c(N)nc3ccccc3c21 [imiquimod] |  |  |  |  |  | IC50 (Leishmania infantum): 235 ± 10 nM |
|  |  | Oc1ccc(/C=C/c2cc(O)cc(O)c2)cc1 [resveratrol] |  |  |  |  |  | IC50 against Leishmania in peritoneal macrophages [9]: 0.09 µg/mL (≈ 0.394 µM) |
|  |  | CC(=O)OC1C(O)CC(OC2C(O)CC(OC3C(O)CC(OC4CCC5(C)C(CCC6C5CCC5(C)C(C7=CC(=O)OC7)CCC65O)C4)OC3C)OC2C)OC1C (stereo not drawn) [β-acetyl-digitoxin] |  |  |  |  |  | IC50 (L. infantum): 20.9 ± 2.6 µM |
